PubChem BioAssay AID248 (DTP/NCI, 2004)
“And” between values parts separate entries of the source, which are not always exact repeats. Equal values may be shown once. Toxic doses and inconclusive results are not listed. Cut-off read from the data, not from the text of the source: active = T/C of 150% or more; inactive = T/C below 125%.

Test system: L1210 leukemia ip in BDF1 mice, survival T/C
Assay: NCI In Vivo Anticancer Drug Screen. Data for tumor model L1210 Leukemia (intraperitoneal) in B6D2F1 (BDF1) mice
Details: endpoint: mean survival time, higher = longer survival
Method in brief: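 Each compound was tested against a transplantable tumor grown in mice. The endpoint was survival, with treated animals benchmarked against vehicle controls as a simple ratio.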

[1] = dose: 100.0 mg/kg/injection, schedule: Q01DX009 (ip), vehicle: saline with Tween-80
[2] = dose: 100.0 mg/kg/injection, schedule: Q04DX003 (ip), vehicle: saline with Tween-80
[3] = dose: 200.0 mg/kg/injection, schedule: Q01DX009 (ip), vehicle: saline with Tween-80
[4] = dose: 200.0 mg/kg/injection, schedule: Q04DX003 (ip), vehicle: saline with Tween-80
[5] = dose: 400.0 mg/kg/injection, schedule: Q01DX009 (ip), vehicle: saline with Tween-80
[6] = dose: 400.0 mg/kg/injection, schedule: Q04DX003 (ip), vehicle: saline with Tween-80
[7] = dose: 100.0 mg/kg/injection, schedule: Q01DX001 (ip), vehicle: carboxymethylcellulose (CMC)
[8] = dose: 200.0 mg/kg/injection, schedule: Q01DX001 (ip), vehicle: carboxymethylcellulose (CMC)
[9] = dose: 400.0 mg/kg/injection, schedule: Q01DX001 (ip), vehicle: carboxymethylcellulose (CMC)
[10] = dose: 100.0 mg/kg/injection, schedule: Q01DX001 (ip), vehicle: Klucel (hydroxypropylcellulose) (HPC)
[11] = dose: 200.0 mg/kg/injection, schedule: Q01DX001 (ip), vehicle: Klucel (hydroxypropylcellulose) (HPC)
[12] = dose: 400.0 mg/kg/injection, schedule: Q01DX001 (ip), vehicle: Klucel (hydroxypropylcellulose) (HPC)
[13] = dose: 100.0 mg/kg/injection, schedule: Q01DX001 (ip), vehicle: saline
[14] = dose: 200.0 mg/kg/injection, schedule: Q01DX001 (ip), vehicle: saline
[15] = dose: 100.0 mg/kg/injection, schedule: Q01DX009 (ip), vehicle: Klucel (hydroxypropylcellulose) (HPC)
[16] = dose: 50.0 mg/kg/injection, schedule: Q01DX009 (ip), vehicle: Klucel (hydroxypropylcellulose) (HPC)
[17] = dose: 100.0 mg/kg/injection, schedule: Q04DX003 (ip), vehicle: Klucel (hydroxypropylcellulose) (HPC)

Measured: T/C

C/C(=N\NS(=O)(=O)c1ccc(C)cc1)C1CCSC1 (stereo unspecified)
inactive: [1] 93 % of control | [2] 111 % of control | [3] 101 % of control | [4] 98 % of control | [5] 90 % of control | [6] 96 % of control

COc1ccc(N=Nc2nccs2)c(O)c1
inactive: dose: 50.0 mg/kg/injection, schedule: Q01DX009 (ip), vehicle: saline with Tween-80 102 % of control | [1] 98 % of control | [3] 109 % of control

COC(=O)NC1CCCCC1I (stereo unspecified)
inactive: [1] 89 % of control | [2] 95 % of control | [3] 101 % of control | [4] 98 % of control | [5] 96 % of control | [6] 93 % of control

CCCCN(CC)C(=S)S[Te](SC(=S)N(CC)CCCC)(SC(=S)N(CC)CCCC)SC(=S)N(CC)CCCC
inactive: [7] 104 % of control | [8] 101 % of control | [9] 89 % of control

O=CNc1ccccc1.[Hg]
inactive: dose: 1.56 mg/kg/injection, schedule: Q04DX003 (ip), vehicle: saline with Tween-80 93 % of control | dose: 3.13 mg/kg/injection, schedule: Q04DX003 (ip), vehicle: saline with Tween-80 92 % of control | dose: 6.25 mg/kg/injection, schedule: Q04DX003 (ip), vehicle: saline with Tween-80 95 % of control and 112 % of control

O=C(CC(=O)c1cccc(NC(=O)CC(/C=C/C=C/CCCCCCCCCCCCCCCCC2CC(=O)OC2=O)C(=O)O)c1)Nc1ccccc1 (stereo unspecified)
inactive: dose: 75.0 mg/kg/injection, schedule: Q04DX003 (ip), vehicle: Klucel (hydroxypropylcellulose) (HPC) 94 % of control | [10] 90 % of control | dose: 150.0 mg/kg/injection, schedule: Q04DX003 (ip), vehicle: Klucel (hydroxypropylcellulose) (HPC) 95 % of control | [11] 90 % of control | dose: 300.0 mg/kg/injection, schedule: Q04DX003 (ip), vehicle: Klucel (hydroxypropylcellulose) (HPC) 103 % of control | [12] 87 % of control

CC1=C(Br)C(=O)C(Br)=C(Br)C1=O
inactive: dose: 100.0 mg/kg/injection, schedule: Q04DX003 (ip), vehicle: acetone 96 % of control

O=[N+]([O-])c1cc(S(=O)(=O)O)ccc1Cl
inactive: dose: 100.0 mg/kg/injection, schedule: Q04DX003 (ip), vehicle: carboxymethylcellulose (CMC) 100 % of control | [2] 98 % of control | dose: 200.0 mg/kg/injection, schedule: Q04DX003 (ip), vehicle: carboxymethylcellulose (CMC) 101 % of control | [4] 102 % of control | dose: 400.0 mg/kg/injection, schedule: Q04DX003 (ip), vehicle: carboxymethylcellulose (CMC) 97 % of control | [6] 101 % of control

COC(=O)CCC(=O)c1ccc(Cl)cc1
inactive: dose: 100.0 mg/kg/injection, schedule: Q01DX009 (ip), vehicle: gum acacia 98 % of control | dose: 100.0 mg/kg/injection, schedule: Q04DX003 (ip), vehicle: gum acacia 100 % of control | dose: 200.0 mg/kg/injection, schedule: Q01DX009 (ip), vehicle: gum acacia 97 % of control | dose: 200.0 mg/kg/injection, schedule: Q04DX003 (ip), vehicle: gum acacia 96 % of control | dose: 400.0 mg/kg/injection, schedule: Q01DX009 (ip), vehicle: gum acacia 101 % of control | dose: 400.0 mg/kg/injection, schedule: Q04DX003 (ip), vehicle: gum acacia 102 % of control

COc1ccc(/C=C2\CSC(=O)NC2=O)cc1OC
inactive: [13] 104 % of control | [14] 106 % of control | dose: 400.0 mg/kg/injection, schedule: Q01DX001 (ip), vehicle: saline 106 % of control

COc1ccc2c(c1)c1c(C)c3cnccc3c(C)c1n2CCOC(C)=O
inactive: dose: 12.5 mg/kg/injection, schedule: Q01DX009 (ip), vehicle: saline 107 % of control | dose: 25.0 mg/kg/injection, schedule: Q01DX009 (ip), vehicle: saline 100 % of control | dose: 50.0 mg/kg/injection, schedule: Q01DX009 (ip), vehicle: saline 112 % of control | dose: 100.0 mg/kg/injection, schedule: Q01DX001 (ip), vehicle: saline with Tween-80 88 % of control | dose: 200.0 mg/kg/injection, schedule: Q01DX001 (ip), vehicle: saline with Tween-80 100 % of control | dose: 400.0 mg/kg/injection, schedule: Q01DX001 (ip), vehicle: saline with Tween-80 120 % of control

COc1ccc(N=C(C)CC(C)=O)cc1
inactive: [10] 101 % of control | [15] 108 % of control | [11] 103 % of control | dose: 200.0 mg/kg/injection, schedule: Q01DX009 (ip), vehicle: Klucel (hydroxypropylcellulose) (HPC) 97 % of control | [12] 101 % of control | dose: 400.0 mg/kg/injection, schedule: Q01DX009 (ip), vehicle: Klucel (hydroxypropylcellulose) (HPC) 102 % of control

CNC(=O)O/N=C/c1cccc(OC)c1
inactive: [1] 93 % of control | [3] 100 % of control | [5] 95 % of control

CN(C)C1c2cc(Cl)ccc2-c2c(Cl)cc(Cl)cc21 (stereo unspecified)
inactive: dose: 50.0 mg/kg/injection, schedule: Q01DX001 (ip), vehicle: carboxymethylcellulose (CMC) 100 % of control | [7] 102 % of control | [8] 100 % of control | [9] 105 % of control

CC(C)=CC(=O)NC(=O)NS(=O)(=O)c1ccc(C)cc1
inactive: [16] 91 % of control | [15] 95 % of control | [17] 115 % of control | dose: 200.0 mg/kg/injection, schedule: Q04DX003 (ip), vehicle: Klucel (hydroxypropylcellulose) (HPC) 104 % of control

N#CCCCSC(=N)N
inactive: [13] 106 % of control | [14] 104 % of control

O=C1c2cccc3c([N+](=O)[O-])ccc(c23)C(=O)N1CCc1ccccn1
inactive: dose: 100.0 mg/kg/injection, schedule: Q04DX002 (ip), vehicle: saline with Tween-80 106 % of control | dose: 200.0 mg/kg/injection, schedule: Q04DX002 (ip), vehicle: saline with Tween-80 95 % of control | dose: 400.0 mg/kg/injection, schedule: Q04DX002 (ip), vehicle: saline with Tween-80 103 % of control

CCOP(=O)(OCC)O/N=C(/c1ccccc1)C(C)C
inactive: dose: 5.0 mg/kg/injection, schedule: Q01DX001 (ip), vehicle: saline 98 % of control | dose: 10.0 mg/kg/injection, schedule: Q01DX001 (ip), vehicle: saline 98 % of control | dose: 20.0 mg/kg/injection, schedule: Q01DX001 (ip), vehicle: saline 93 % of control | dose: 40.0 mg/kg/injection, schedule: Q01DX001 (ip), vehicle: saline 100 % of control

O=[N+]([O-])c1cc(Cl)cc2c1nc(NCCO)c1ccccc12
inactive: dose: 25.0 mg/kg/injection, schedule: Q01DX009 (ip), vehicle: Klucel (hydroxypropylcellulose) (HPC) 95 % of control | [16] 97 % of control | [17] 97 % of control

O=C(NCCCl)Nc1ccc(C(=O)O)c(O)c1
inactive: dose: 80.0 mg/kg/injection, schedule: Q04DX002 (ip), vehicle: Klucel (hydroxypropylcellulose) (HPC) 98 % of control | dose: 160.0 mg/kg/injection, schedule: Q04DX002 (ip), vehicle: Klucel (hydroxypropylcellulose) (HPC) 88 % of control | dose: 320.0 mg/kg/injection, schedule: Q04DX002 (ip), vehicle: Klucel (hydroxypropylcellulose) (HPC) 91 % of control
